# Molecular target: SARS-CoV-2 RdRp (nsp12-nsp7-nsp8 complex) (Severe acute respiratory syndrome coronavirus 2, UniProt P0DTD1)
# Assay: biochemical
row,SMILES,EC50 [µM]
1,O=c1ccn([C@@H]2O[C@H](COP(=O)(O)OP(=O)(O)OP(=O)(O)O)C[C@H]2O)c(=O)[nH]1 [3’-dUTP],0.751
2,Cc1cn([C@@H]2O[C@H](COP(=O)(O)OP(=O)(O)OP(=O)(O)O)C[C@H]2O)c(=O)[nH]c1=O [5-methyl-3’-dUTP],0.107
3,O=c1ccn([C@@H]2O[C@H](COP(=O)(O)OP(=O)(O)OP(=O)(O)O)[C@@H](O)[C@H]2O)c(=O)[nH]1 [UTP],0.0479
